Reference: PubChem BioAssay (NCI)
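These data come from cells grown in 96-well plates and exposed to compound for 48 hours at five concentrations. TGI: concentration producing complete growth inhibition.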

Test system: KM12 colon
Experiment: NCI-60 cell line screen, 48 h

First: CC(C)C1=C2CCC3(C)C(CCC4C5C6OCC5(CCC6(C)C)CCC43C)C2(C)CC1 (configuration not stated)
Second: COC(=O)C1=C(O)C(C(=O)OC)[C@@]2(O)[C@@H](C(=O)OC)[C@H](C)[C@@H](C)[C@@H]1[C@@H]2C(=O)OC (some centres not stated)
The TGI of the first is lower: 35.2 µM for the first, over 100 µM for the second.

c1ccc(-c2cnc(-c3ccc(-c4ncc(-c5ccccc5)o4)cc3)o2)cc1 and O=C(OCC(OC(=O)c1ccccc1)C(OC(=O)c1ccccc1)C(OC(=O)c1ccccc1)c1cnn(-c2ccccc2)n1)c1ccccc1 (configuration not stated) cannot be ordered by TGI: over 100 µM for the first, over 100 µM for the second.

Test system: MALME-3M melanoma
Experiment: NCI-60 cell line screen, 48 h

CCOC(=O)C1CN(C2CC2)CCC1=O (configuration not stated) and CCOC(=O)C(C)c1nc2c(Cl)c3ncccc3cc2[nH]c1=O (configuration not stated) cannot be ordered by TGI: over 100 µM for the first, over 100 µM for the second.

Cc1cc2nc(-c3cc(C(C)(C)C)c(O)c(C(C)(C)C)c3)[nH]c2cc1C and c1ccc(-c2cnc(-c3ccc(-c4ncc(-c5ccccc5)o4)cc3)o2)cc1 cannot be ordered by TGI: over 100 µM for the first, over 100 µM for the second.

Compared with CC(C)C1=C2CCC3(C)C(CCC4C5C6OCC5(CCC6(C)C)CCC43C)C2(C)CC1 (configuration not stated), COC(=O)C1=C(O)C(C(=O)OC)[C@@]2(O)[C@@H](C(=O)OC)[C@H](C)[C@@H](C)[C@@H]1[C@@H]2C(=O)OC (some centres not stated) is higher in TGI: 38.6 µM for the first, over 100 µM for the second.

In the case of O=C(OCC(OC(=O)c1ccccc1)C(OC(=O)c1ccccc1)C(OC(=O)c1ccccc1)c1cnn(-c2ccccc2)n1)c1ccccc1 (configuration not stated), the TGI is reported as over 100 µM.

Test system: SN12C renal
Experiment: NCI-60 cell line screen, 48 h

CCOC(=O)C1CN(C2CC2)CCC1=O (configuration not stated) and CCOC(=O)C(C)c1nc2c(Cl)c3ncccc3cc2[nH]c1=O (configuration not stated) cannot be ordered by TGI: over 100 µM for the first, over 100 µM for the second.

Cc1cc2nc(-c3cc(C(C)(C)C)c(O)c(C(C)(C)C)c3)[nH]c2cc1C and c1ccc(-c2cnc(-c3ccc(-c4ncc(-c5ccccc5)o4)cc3)o2)cc1 cannot be ordered by TGI: over 100 µM for the first, over 100 µM for the second.

First: CC(C)C1=C2CCC3(C)C(CCC4C5C6OCC5(CCC6(C)C)CCC43C)C2(C)CC1 (configuration not stated)
Second: COC(=O)C1=C(O)C(C(=O)OC)[C@@]2(O)[C@@H](C(=O)OC)[C@H](C)[C@@H](C)[C@@H]1[C@@H]2C(=O)OC (some centres not stated)
The TGI of the first is lower: 29.9 µM for the first, over 100 µM for the second.

In the case of O=C(OCC(OC(=O)c1ccccc1)C(OC(=O)c1ccccc1)C(OC(=O)c1ccccc1)c1cnn(-c2ccccc2)n1)c1ccccc1 (configuration not stated), the TGI is reported as over 100 µM.

Test system: LOX IMVI melanoma
Experiment: NCI-60 cell line screen, 48 h

CCOC(=O)C1CN(C2CC2)CCC1=O (configuration not stated) and CCOC(=O)C(C)c1nc2c(Cl)c3ncccc3cc2[nH]c1=O (configuration not stated) cannot be ordered by TGI: over 100 µM for the first, over 100 µM for the second.

Compared with Cc1cc2nc(-c3cc(C(C)(C)C)c(O)c(C(C)(C)C)c3)[nH]c2cc1C, c1ccc(-c2cnc(-c3ccc(-c4ncc(-c5ccccc5)o4)cc3)o2)cc1 is higher in TGI: 28.6 µM for the first, over 100 µM for the second.

First: CC(C)C1=C2CCC3(C)C(CCC4C5C6OCC5(CCC6(C)C)CCC43C)C2(C)CC1 (configuration not stated)
Second: COC(=O)C1=C(O)C(C(=O)OC)[C@@]2(O)[C@@H](C(=O)OC)[C@H](C)[C@@H](C)[C@@H]1[C@@H]2C(=O)OC (some centres not stated)
The TGI of the first is lower: 28.7 µM for the first, over 100 µM for the second.

Compound O=C(OCC(OC(=O)c1ccccc1)C(OC(=O)c1ccccc1)C(OC(=O)c1ccccc1)c1cnn(-c2ccccc2)n1)c1ccccc1 (configuration not stated) has a TGI of over 100 µM.

Test system: NCI-H460 lung
Experiment: NCI-60 cell line screen, 48 h

Going from CCOC(=O)C1CN(C2CC2)CCC1=O (configuration not stated) to CC(C)C1=C2CCC3(C)C(CCC4C5C6OCC5(CCC6(C)C)CCC43C)C2(C)CC1 (configuration not stated), the TGI falls from over 100 µM to 31.8 µM.

Cc1cc2nc(-c3cc(C(C)(C)C)c(O)c(C(C)(C)C)c3)[nH]c2cc1C and c1ccc(-c2cnc(-c3ccc(-c4ncc(-c5ccccc5)o4)cc3)o2)cc1 cannot be ordered by TGI: over 100 µM for the first, over 100 µM for the second.

O=C(OCC(OC(=O)c1ccccc1)C(OC(=O)c1ccccc1)C(OC(=O)c1ccccc1)c1cnn(-c2ccccc2)n1)c1ccccc1 (configuration not stated) and COC(=O)C1=C(O)C(C(=O)OC)[C@@]2(O)[C@@H](C(=O)OC)[C@H](C)[C@@H](C)[C@@H]1[C@@H]2C(=O)OC (some centres not stated) cannot be ordered by TGI: over 100 µM for the first, over 100 µM for the second.

Test system: UACC-62 melanoma
Experiment: NCI-60 cell line screen, 48 h

CCOC(=O)C1CN(C2CC2)CCC1=O (configuration not stated) and CCOC(=O)C(C)c1nc2c(Cl)c3ncccc3cc2[nH]c1=O (configuration not stated) cannot be ordered by TGI: over 100 µM for the first, over 100 µM for the second.

Going from Cc1cc2nc(-c3cc(C(C)(C)C)c(O)c(C(C)(C)C)c3)[nH]c2cc1C to c1ccc(-c2cnc(-c3ccc(-c4ncc(-c5ccccc5)o4)cc3)o2)cc1, the TGI rises from 2.74 µM to over 100 µM.

Going from CC(C)C1=C2CCC3(C)C(CCC4C5C6OCC5(CCC6(C)C)CCC43C)C2(C)CC1 (configuration not stated) to COC(=O)C1=C(O)C(C(=O)OC)[C@@]2(O)[C@@H](C(=O)OC)[C@H](C)[C@@H](C)[C@@H]1[C@@H]2C(=O)OC (some centres not stated), the TGI rises from 41.3 µM to over 100 µM.

Compound O=C(OCC(OC(=O)c1ccccc1)C(OC(=O)c1ccccc1)C(OC(=O)c1ccccc1)c1cnn(-c2ccccc2)n1)c1ccccc1 (configuration not stated) has a TGI of over 100 µM.

Test system: OVCAR-4 ovarian
Experiment: NCI-60 cell line screen, 48 h

CCOC(=O)C1CN(C2CC2)CCC1=O (configuration not stated) and CCOC(=O)C(C)c1nc2c(Cl)c3ncccc3cc2[nH]c1=O (configuration not stated) cannot be ordered by TGI: over 100 µM for the first, over 100 µM for the second.

Cc1cc2nc(-c3cc(C(C)(C)C)c(O)c(C(C)(C)C)c3)[nH]c2cc1C and c1ccc(-c2cnc(-c3ccc(-c4ncc(-c5ccccc5)o4)cc3)o2)cc1 cannot be ordered by TGI: over 23.3 µM for the first, over 100 µM for the second.

Going from CC(C)C1=C2CCC3(C)C(CCC4C5C6OCC5(CCC6(C)C)CCC43C)C2(C)CC1 (configuration not stated) to O=C(OCC(OC(=O)c1ccccc1)C(OC(=O)c1ccccc1)C(OC(=O)c1ccccc1)c1cnn(-c2ccccc2)n1)c1ccccc1 (configuration not stated), the TGI rises from 77.5 µM to over 100 µM.

Test system: NCI-H226 lung
Experiment: NCI-60 cell line screen, 48 h

CCOC(=O)C1CN(C2CC2)CCC1=O (configuration not stated) and CCOC(=O)C(C)c1nc2c(Cl)c3ncccc3cc2[nH]c1=O (configuration not stated) cannot be ordered by TGI: over 100 µM for the first, over 100 µM for the second.

Cc1cc2nc(-c3cc(C(C)(C)C)c(O)c(C(C)(C)C)c3)[nH]c2cc1C showed a TGI of over 100 µM.
